Test results taken from patent publication US20050119288A1, “Dosing schedule for a novel anticancer agent” (Pfizer Inc, priority 2003, published 2005).
Where two headings read alike, the source gives them in different places. Marks after values point to notes of the source that are not given here.

What was measured:
[1] = biological target: erbB2 receptor autophosphorylation (Homo sapiens, UniProt P04626); test: p-erbB2 reduction in MDA-MB-453 tumors by ELISA; assay type: in vivo
Procedure: (§1) Study Design: Exponentially growing MDA-MB-453 cells (DMEM/F12 with 10% FBS, and pen/strep [Gibco]) were harvested and inoculated SC (5 million cells/animal) into female athymic mice. MDA-MB-453 tumor bearing mice (˜100 mm^3 in size, N=64) were randomized in 8 groups consisting 8 animals each. Animals were treated with vehicle (PO, QD or BID) or the test compound (PO, QD or BID) as described in Table 6. The tumor measurements and body weight changes were obtained on days 1, 3, 7, 10, 14, 17, 21, 24, and 29. Tumor volume was calculated by the following formula: Tumor volume (mm^3)═(W×W)/2×L (L=length & W=width). Blood samples (˜50 μl) were isolated at 0.5, 1, 2, 4 and 8 hrs after dosing on day 29 for PK-analysis. Tumors were isolated at 0.5 hr post-dosing on day 29 for PD-analysis by ELISA.

FRE/erbB2 tumors = test: FRE/erbB2 tumor growth in athymic mice; assay type: in vivo, murine; settings: for % GI (% Growth Inhibition): day 7
Excerpt: (§2) The in vivo anti-tumor activity of the compounds for use in the methods of the present invention can be determined by the amount of inhibition of tumor growth by a test compound relative to a control. The tumor growth inhibitory effects of various compounds can be measured according to the method of Corbett T. H., et al., “Tumor Induction Relationships in Development of Transplantable Cancers of the Colon in Mice for Chemotherapy Assays, with a Note on Carcinogen Structure”, Cancer Res., 35, 2434-2439 (1975) and Corbett T. H., et al., “A Mouse Colon-tumor Model for Experimental Therapy”, Cancer Chemother. Rep. (Part 2)”, 5, 169-186 (1975), with slight modifications. Tumors can be induced in the left flank of mice by subcutaneous (sc) injection of 1-5 million log phase cultured tumor cells suspended in 0.1 ml RPMI 1640 medium. After sufficient time has elapsed for the tumors to become palpable (˜100-150 mm^3 in size/5-6 mm in diameter) the test animals (athymic female mice) are treated with test compound (formulated at a concentration of 10 to 15 mg/ml in 5 Gelucire or 0.5% methyl cellulose) by the intravenous (iv) or oral (po) route of administration once or twice daily for 7 to 29 consecutive days. In order to determine an anti-tumor effect, the tumor is measured in millimeters with a Vernier caliper across two diameters and the tumor size (mm^3) is calculated using the formula: Tumor size (mm^3)=(W×W)/2×L (L=length and W=width), according to the methods of Geran, R. I., et al. “Protocols for Screening Chemical Agents and Natural Products Against Animal Tumors and Other Biological Systems”, Third Edition, Cancer Chemother. Rep., 3, 1-104 (1972). Results are expressed as percent inhibition, according to the formula: Inhibition Growth (%)=[100-{(% Growth of Treated/% Growth of Control)×100}]. The flank site of tumor implantation provides reproducible dose/response effects for a variety of chemotherapeutic agents, and the method of measurement (tumor diameter) is a reliable method for assessing tumor growth rates.
An objective of the pre-clinical investigations was to determine whether the Cmax or area under the curve (AUC) of the test compound is critical for the anti-tumor efficacy. An additional goal was to establish a pharmacokinetics/pharmacodynamics (PK/PD) relationship in the FRE/erbB2 tumor model. The FRE/erbB2 is an engineered murine tumor model, which over-expresses human erbB2 with a trans-membrane mutation.

SK-OV-3 tumors = test: SK-OV-3 xenograft tumor growth in athymic mice; assay type: in vivo, human; settings: for % Growth inhibition / Tumor volume Day 1 (Mean ± SE) / Tumor volume Day 18 (Mean ± SE): PO
Excerpt: as §2
SK-OV-3 cells obtained from ATCC (Rockville, Md.) were grown in McCoy's medium containing 10% fetal bovine serum and pen/strep. Exponentially growing cells were harvested and inoculated SC (5 million cells/animal) into female athymic mice. The tumor measurements and body weight changes were obtained on days 1, 3, 6, 10, 13 and 18. Tumor volume was calculated by the following formula: Tumor volume (mm^3)═(W×W)/2×L (L=length & W=width). Blood samples (˜50 μl) were isolated at 0.5, 1, 2, 4 and 8 hrs after dosing on day 18 for PK-analysis. Tumors were isolated at 0.5 hr post-dosing on day 18 for PD-analysis by ELISA. The p-erbB2 reduction, tumor volume and body weight changes in control and test compound treated animals are shown below in Table 2.

[2] = Pharmacokinetics in MDA-MB-453 tumor-bearing mice; assay type: in vivo; settings: day 29; for Cave0-4 h / AUC(0-t) / Cmax: PO; for AUC(0-t) / Cmax: female, athymic, mouse, blood, po; for AUC(0-t): read-out: AUC0-4 h; for Cmax: read-out: Cmax 0.5 h
Procedure: as §1

erbB2 receptor autophosphorylation, sequence (P04626 23-1255): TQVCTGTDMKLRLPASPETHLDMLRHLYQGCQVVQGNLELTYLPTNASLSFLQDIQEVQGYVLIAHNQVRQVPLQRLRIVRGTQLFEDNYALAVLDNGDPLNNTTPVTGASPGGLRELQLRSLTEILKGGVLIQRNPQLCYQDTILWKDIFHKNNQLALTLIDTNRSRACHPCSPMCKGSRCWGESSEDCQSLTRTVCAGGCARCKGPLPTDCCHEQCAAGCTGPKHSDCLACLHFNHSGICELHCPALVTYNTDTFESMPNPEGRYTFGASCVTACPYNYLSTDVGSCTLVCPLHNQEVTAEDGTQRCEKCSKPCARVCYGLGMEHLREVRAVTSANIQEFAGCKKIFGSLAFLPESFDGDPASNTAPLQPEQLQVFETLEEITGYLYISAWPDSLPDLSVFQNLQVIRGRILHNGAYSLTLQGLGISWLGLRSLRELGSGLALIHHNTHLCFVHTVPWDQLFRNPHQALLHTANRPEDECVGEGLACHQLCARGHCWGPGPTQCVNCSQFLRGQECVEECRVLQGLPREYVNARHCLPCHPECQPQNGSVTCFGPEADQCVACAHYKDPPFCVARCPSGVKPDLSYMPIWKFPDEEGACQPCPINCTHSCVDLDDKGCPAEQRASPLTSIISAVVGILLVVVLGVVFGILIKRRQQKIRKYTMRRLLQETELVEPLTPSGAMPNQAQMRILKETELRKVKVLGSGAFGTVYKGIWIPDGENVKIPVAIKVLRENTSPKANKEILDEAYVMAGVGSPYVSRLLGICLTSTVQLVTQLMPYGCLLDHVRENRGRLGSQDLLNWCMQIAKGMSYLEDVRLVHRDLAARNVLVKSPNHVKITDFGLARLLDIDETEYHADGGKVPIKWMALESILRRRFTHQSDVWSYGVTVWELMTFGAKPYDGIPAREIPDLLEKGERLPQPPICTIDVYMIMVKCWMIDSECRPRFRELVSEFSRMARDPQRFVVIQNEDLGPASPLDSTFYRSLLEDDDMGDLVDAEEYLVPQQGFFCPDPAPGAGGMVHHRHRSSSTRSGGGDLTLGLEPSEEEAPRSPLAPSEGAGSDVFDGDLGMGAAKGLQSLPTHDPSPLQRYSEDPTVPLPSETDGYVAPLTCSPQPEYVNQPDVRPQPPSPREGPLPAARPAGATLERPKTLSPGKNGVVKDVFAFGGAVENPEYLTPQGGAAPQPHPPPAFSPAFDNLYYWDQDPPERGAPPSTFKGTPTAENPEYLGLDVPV

COCC(=O)NC/C=C/c1ccc2ncnc(Nc3ccc(Oc4ccc(C)nc4)c(C)c3)c2c1 [Test Compound, E-2-Methoxy-N-(3-{4-(3-methyl-4-(6-methyl-pyridin-3-yloxy)-phenylamino)-quinazolin-6-yl}-allyl)-acetamide]
inhibition in vivo at 25 mg/kg ([1]; MDA-MB-453, po, 0.5 h, PO, BID 25 mg/kg (Total Daily Dose = 50 mg/kg), 0.5 hr post-dosing on day 29): 69% | inhibition in vivo at 50 mg/kg ([1]; MDA-MB-453, po, 0.5 h, PO, BID 50 mg/kg (Total Daily Dose = 100 mg/kg), 0.5 hr post-dosing on day 29): 75% | inhibition in vivo at 100 mg/kg ([1]; MDA-MB-453, po, 0.5 h, PO, BID 100 mg/kg (Total Daily Dose = 200 mg/kg), 0.5 hr post-dosing on day 29): 79% | inhibition in vivo at 50 mg/kg ([1]; MDA-MB-453, po, 0.5 h, PO, QD 50 mg/kg, 0.5 hr post-dosing on day 29): 78% | inhibition in vivo at 100 mg/kg ([1]; MDA-MB-453, po, 0.5 h, PO, QD 100 mg/kg, 0.5 hr post-dosing on day 29): 88% | inhibition in vivo at 200 mg/kg ([1]; MDA-MB-453, po, 0.5 h, PO, QD 200 mg/kg, 0.5 hr post-dosing on day 29): 92% | reduction of p-erbB2 ([1]; span over QD (50-200 mg/kg) and BID (25-100 mg/kg) dosings): 69-92% | Tumor vol. Day 1 (Mean ± SE) (FRE/erbB2 tumors; 1.4 mg/kg IV, QD, 15 min/day): 121 ± 24 mm^3 | Tumor vol. Day 7 (Mean ± SE) (FRE/erbB2 tumors; 1.4 mg/kg IV, QD, 15 min/day): 749 ± 178 mm^3 | % GI (% Growth Inhibition) (FRE/erbB2 tumors; 1.4 mg/kg IV, QD, 15 min/day): 34% | % GI (% Growth Inhibition) (FRE/erbB2 tumors; 1.4 mg/kg IV, QD, 15 min/day, listed as test compound): approximately 34% | Tumor vol. Day 1 (Mean ± SE) (FRE/erbB2 tumors; 10.7 mg/kg IV, 4 hr/day): 117 ± 23 mm^3 | Tumor vol. Day 7 (Mean ± SE) (FRE/erbB2 tumors; 10.7 mg/kg IV, 4 hr/day): 273 ± 81 mm^3 | % GI (% Growth Inhibition) (FRE/erbB2 tumors; 10.7 mg/kg IV, 4 hr/day): 76% | Tumor vol. Day 1 (Mean ± SE) (FRE/erbB2 tumors; 25 mg/kg PO, QD): 113 ± 18 mm^3 | Tumor vol. Day 7 (Mean ± SE) (FRE/erbB2 tumors; 25 mg/kg PO, QD): 531 ± 101 mm^3 | % GI (% Growth Inhibition) (FRE/erbB2 tumors; 25 mg/kg PO, QD, compare to Vehicle (IV) group): 54* % | % GI (% Growth Inhibition) (FRE/erbB2 tumors; 25 mg/kg PO, QD, compare to Vehicle (IV) group, listed as test compound): Approximately 54% | FRE tumor volume in treated mice relative to control (FRE/erbB2 tumors; 25 mg/kg orally once a day, seven days of treatment (FIG. 1)): about half of the control | tumor volume increase relative to vehicle control (FRE/erbB2 tumors; about 10 mg/kg IV for seven days over a four hour period each day (FIG. 2)): less than 24% | tumor volume increase relative to vehicle control (FRE/erbB2 tumors; rapid infusion of about 1.4 mg/kg daily over about 15 min/day (FIG. 2)): less than 66% | tumor growth inhibition, 100 mg/kg BID relative to 200 mg/kg QD (SK-OV-3 tumors; 18 days): 2 fold | % Growth inhibition (SK-OV-3 tumors; BID 25 mg/kg (Total Daily Dose = 50 mg/kg), 18 days): 29% | % Growth inhibition (SK-OV-3 tumors; BID 25 mg/kg (Total Daily Dose = 50 mg/kg), 18 days, listed as test compound): Approximately 29% | Tumor volume Day 1 (Mean ± SE) (SK-OV-3 tumors; BID 25 mg/kg): 93 ± 12 mm^3 | Tumor volume Day 18 (Mean ± SE) (SK-OV-3 tumors; BID 25 mg/kg): 281 ± 42 mm^3 | % Growth inhibition (SK-OV-3 tumors; BID 50 mg/kg (Total Daily Dose = 100 mg/kg), 18 days): 45% | Tumor volume Day 1 (Mean ± SE) (SK-OV-3 tumors; BID 50 mg/kg): 94 ± 13 mm^3 | Tumor volume Day 18 (Mean ± SE) (SK-OV-3 tumors; BID 50 mg/kg): 218 ± 38 mm^3 | % Growth inhibition (SK-OV-3 tumors; BID 100 mg/kg (Total Daily Dose = 200 mg/kg), 18 days): 71% | Tumor volume Day 1 (Mean ± SE) (SK-OV-3 tumors; BID 100 mg/kg): 94 ± 13 mm^3 | Tumor volume Day 18 (Mean ± SE) (SK-OV-3 tumors; BID 100 mg/kg): 115 ± 24 mm^3 | % Growth inhibition (SK-OV-3 tumors; QD 50 mg/kg, 18 days): 2% | % Growth inhibition (SK-OV-3 tumors; QD 50 mg/kg, 18 days, listed as test compound): non-efficacious | Tumor volume Day 1 (Mean ± SE) (SK-OV-3 tumors; QD 50 mg/kg): 98 ± 14 mm^3 | Tumor volume Day 18 (Mean ± SE) (SK-OV-3 tumors; QD 50 mg/kg): 390 ± 38 mm^3 | % Growth inhibition (SK-OV-3 tumors; QD 100 mg/kg, 18 days): 23% | Tumor volume Day 1 (Mean ± SE) (SK-OV-3 tumors; QD 100 mg/kg): 97 ± 14 mm^3 | Tumor volume Day 18 (Mean ± SE) (SK-OV-3 tumors; QD 100 mg/kg): 306 ± 36 mm^3 | % Growth inhibition (SK-OV-3 tumors; QD 200 mg/kg, 18 days): 36% | Tumor volume Day 1 (Mean ± SE) (SK-OV-3 tumors; QD 200 mg/kg): 98 ± 14 mm^3 | Tumor volume Day 18 (Mean ± SE) (SK-OV-3 tumors; QD 200 mg/kg): 254 ± 39 mm^3 | Cave0-4 h ([2]; 25 mg/kg, BID): 215 ng/mL | Cave0-4 h ([2]; 50 mg/kg, BID): 509 ng/mL | Cave0-4 h ([2]; 50 mg/kg, QD): 591 ng/mL | Cave0-4 h ([2]; 100 mg/kg, BID): 1710 ng/mL | Cave0-4 h ([2]; 100 mg/kg, QD): 3120 ng/mL | Cave0-4 h ([2]; 200 mg/kg, QD): 6510 ng/mL | Cave0-4 h, 200 mg/kg QD group relative to 100 mg/kg BID group [2]: 3.8 fold | Cmax, 100 mg/kg QD group relative to 50 mg/kg QD and 50 mg/kg BID groups [2]: approximately 4 fold | Cmax, 200 mg/kg QD group relative to 100 mg/kg BID group [2]: 2.4 fold | AUC(0-t) ([2]; 25 mg/kg, BID): 857 ng·h/mL | Cmax ([2]; 25 mg/kg, BID): 952 ng/mL | AUC(0-t) ([2]; 50 mg/kg, BID): 2040 ng·h/mL | Cmax ([2]; 50 mg/kg, BID): 2390 ng/mL | AUC(0-t) ([2]; 50 mg/kg, QD): 2360 ng·h/mL | Cmax ([2]; 50 mg/kg, QD): 2760 ng/mL | AUC(0-t) ([2]; 100 mg/kg, BID): 6840 ng·h/mL | Cmax ([2]; 100 mg/kg, BID): 6870 ng/mL | AUC(0-t) ([2]; 100 mg/kg, QD): 12500 ng·h/mL | Cmax ([2]; 100 mg/kg, QD): 9770 ng/mL | AUC(0-t) ([2]; 200 mg/kg, QD): 26100 ng·h/mL | Cmax ([2]; 200 mg/kg, QD): 16700 ng/mL
